Source: patent US8592421B2, “Cyclic bioisosters of purine system derivatives and a pharmaceutical composition based thereon” (priority 2003, dated 2013)

Columns and labels:
[1] = Morphine abstinence model: thymus condition (mass, nitrites); type: in vivo, rats; details: for Nitrites in thymus supernatant: control 0.331 ± 0.041; for Thymus mass: control 230 ± 14
Outline: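 Rats morphinized, then dosed with compound, alongside control and morphinized-only groups; thymus assessed by mass and nitrites. Deproteinized samples treated with Aspergillus nitrate reductase (0.2 unit/ml, 5.0 mkM FAD, 0.1 mM NADPH, HEPES pH 7.4, 30 min 37° C.), then Griess absorbance at 540 nm against sodium nitrate standard.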

plasma hemostasis [2] = assay: Partial activated thromboplastin time (PATT) after intravenous administration; type: in vivo, rabbit
Method: (§1) The static parameters of the blood and plasma coagulation (partial activated thromboplastin time, thrombin time, maximum coagulation activity (test for auto coagulation) were determined using the Behnk Electronic coagulometer (Germany). The operating principle of this instrument is based on the fact that the formed blood clot breaks the contacts of the pulse counter in the flask-pin circuit, said pin permanently oscillating in a vertical plane. The moment of formation of the clot is registered by stopping the stop watch hand.
(§2) The measurements were effected at a constant temperature of 37° C. maintained by a temperature control unit.

[3] = Chronic toxicity of suppositories: biochemical indexes of blood serum; type: in vivo, rats; details: male rats, suppositories, 1 month; for Cholesterol in blood serum: control 3.02 ± 0.08; for Urea in blood serum: control 8.44 ± 0.60; for Glucose in blood serum: control 9.76 ± 0.15; for ALT in blood serum: control 11.33 ± 1.96; for AST in blood serum: control 19.13 ± 1.02; for Bilirubin in blood serum: control 35.93 ± 2.19; for Creatinine in blood serum: control 40.23 ± 2.84; for Alkalinous phosphatase in blood serum: control 40.74 ± 1.57; for Total protein in blood serum: control 94.89 ± 6.67;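 for all read-outs here: inbred rats dosed rectally with softened suppositories, controls given matching volumes of sterile medical liquid paraffin, serum sampled one month into a two-month dosing course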
Method: Two doses of preparations used in the experiments: 50 mg/kg and 500 mg/kg. Before the administration, the suppositories were softened by heating in a glass water bath at a temperature of 38-39° C., the soft mass was collected in tuberculin syringe in a volume of 1 ml, a needle with oliva was attached to the syringe, and the preparatory mass was introduced into the rectum of the animal for a depth of 1.5-2.0 cm. The animals of the control group were administered with sterile medical liquid paraffin in a volume corresponding to the volume of the investigated suppository. A complete course of administration of drugs to the animals was two months. A complex of laboratory diagnostic investigations was carried out one month after the beginning of the administration of the preparation to the animal—in a middle of the course (8 animals), two months after ending the course (8 animals) and three months after ending the recovery period of one month (8 animals). The mass of the body of the rats in the first month of administration of the preparation was determined weekly, and then once in two weeks. On the basis of the dynamics of an index of the mass of the animal body, the volume of preparation being administered was corrected taking into account the test dose.

[4] = Chronic toxicity of suppositories: indexes of urine; type: in vivo, rats; details: rats, suppositories rectal, 1 month after administration
Method: The experiments were conducted on inbred rats.

plasma hemostasis [5] = assay: Autocoagulation test (coagulating activity A) after intravenous administration; type: in vivo, rabbit
Method: The investigations were performed on 72 rabbits of the “Chinchilla” breed with a mass of 2.5±0.3 kg, who were administered which solutions of compounds 2, 15, 21, 37 in doses of 15, 30 and 60 mg/kg intravenously. The experiments included the thrombin-test (series No. 7300) and the coagulability-test (series No. 5000) purchased from the scientific-and-production association (SPA) “Renam”, thromboplastin (series No. 240600) and calcium chloride purchased from the SPA “MedioLab”
as §1, §2
Compounds 2, 15, 21, 37 according to the invention at a concentration of 15, 30 and 60 mg/kg were intravenously administered to the above experimental animals and their blood samples were taken off 15, 30, 60 and 120 minutes after the administration.
Added to 0.2 ml of plasma obtained by centrifuging citrate blood at 1500 rev/min within 10 minutes was a glycosylate-calcium mixture (2.0 ml 0.222% CaCl2+0.1 ml of investigated citrate blood) 4, 6, 8, 10 minutes after the preparation of this mixture and the time of coagulation in the sample was determined.
The obtained results in seconds were translated in factors of coagulating activity A in percent, which specify the state of both the coagulating and anticoagulating parts of the blood coagulating system. The results of the experiments are given in Table 7. • The effect of the compounds according to the invention on the values of coagulating activity A by the data of autocoagulation test with intravenous administration of the compounds to the rabbits

[6] = Administration of morphine and compound

With `O=c1[nH][nH]c(=O)c2c(Br)ncnc12.[K]` [Compound 37, potassium salt of 4-bromine-pyrimido[4,5-D]-6H-pyridazine-5,8-dione] the “Nitrites in thymus supernatant” value ([1]; Administration of compounds) was 0.410 ± 0.01 nmol/mg of protein, the Thymus mass ([1]; Administration of compounds) was 263 ± 21 mg and the “Nitrites in thymus supernatant” value [1, 6] was 0.387 ± 0.01 nmol/mg of protein. For the same molecule, the Thymus mass [1, 6] was 228 ± 15 mg, the “PATT, T” value (plasma hemostasis [2]; 15.0 mg/kg intravenously, after 15 minutes, control 37.0 ± 0.2) was 37.0 ± 0.2 s and the “PATT, T” value (plasma hemostasis [2]; 15.0 mg/kg intravenously, after 30 minutes, control 37.0 ± 0.2) was 37.1 ± 0.1 s. For the same molecule, the “PATT, T” value (plasma hemostasis [2]; 15.0 mg/kg intravenously, after 60 minutes, control 37.0 ± 0.2) was 37.0 ± 0.2 s, the “PATT, T” value (plasma hemostasis [2]; 15.0 mg/kg intravenously, after 120 minutes, control 37.0 ± 0.2) was 36.9 ± 0.1 s and the “PATT, T” value (plasma hemostasis [2]; 30.0 mg/kg intravenously, after 15 minutes, control 33.3 ± 0.8) was 33.1 ± 0.1 s. The “PATT, T” value (plasma hemostasis [2]; 30.0 mg/kg intravenously, after 30 minutes, control 33.3 ± 0.8) was 33.3 ± 0.1 s, the “PATT, T” value (plasma hemostasis [2]; 30.0 mg/kg intravenously, after 60 minutes, control 33.3 ± 0.8) was 33.3 ± 0.2 s and the “PATT, T” value (plasma hemostasis [2]; 30.0 mg/kg intravenously, after 120 minutes, control 33.3 ± 0.8) was 33.0 ± 0.4 s. The “PATT, T” value (plasma hemostasis [2]; 60.0 mg/kg intravenously, after 15 minutes, control 32.5 ± 0.3) was 32.5 ± 0.1 s, the “PATT, T” value (plasma hemostasis [2]; 60.0 mg/kg intravenously, after 30 minutes, control 32.5 ± 0.3) was 32.3 ± 0.2 s and the “PATT, T” value (plasma hemostasis [2]; 60.0 mg/kg intravenously, after 60 minutes, control 32.5 ± 0.3) was 32.4 ± 0.1 s. The “PATT, T” value (plasma hemostasis [2]; 60.0 mg/kg intravenously, after 120 minutes, control 32.5 ± 0.3) was 32.6 ± 0.3 s, the “effect on the PATT” value (plasma hemostasis [2]; doses 15.0, 30.0, 60.0 mg/kg) was “do not affect the PATT” and the “Cholesterol in blood serum” value ([3]; 50 mg/kg) was 2.48 ± 0.62 mmol/L. The “Urea in blood serum” value ([3]; 50 mg/kg) was 9.36 ± 0.62 Mkmol/l, the Glucose in blood serum ([3]; 50 mg/kg) was 9.9 ± 0.51 mM and the “ALT in blood serum” value ([3]; 50 mg/kg) was 8.98 ± 2.43 unit/l. For the same molecule, the “AST in blood serum” value ([3]; 50 mg/kg) was 19.97 ± 2.78 unit/1, the “Bilirubin in blood serum” value ([3]; 50 mg/kg) was 42.17 ± 3.28 mmol/L and the “Creatinine in blood serum” value ([3]; 50 mg/kg) was 46.84 ± 2.92 mkmol/l. The “Alkalinous phosphatase in blood serum” value ([3]; 50 mg/kg) was 41.86 ± 5.26 unit/l, the “Total protein in blood serum” value ([3]; 50 mg/kg) was 89.44 ± 7.22 g/L and the “Cholesterol in blood serum” value ([3]; 500 mg/kg) was 2.64 ± 0.46 mmol/L. The “Urea in blood serum” value ([3]; 500 mg/kg) was 10.57 ± 0.56 Mkmol/l, the Glucose in blood serum ([3]; 500 mg/kg) was 10.9 ± 0.84 mM and the “ALT in blood serum” value ([3]; 500 mg/kg) was 9.56 ± 1.34 unit/l. The “AST in blood serum” value ([3]; 500 mg/kg) was 18.21 ± 1.87 unit/1, the “Bilirubin in blood serum” value ([3]; 500 mg/kg) was 41.45 ± 7.18 mmol/L and the “Creatinine in blood serum” value ([3]; 500 mg/kg) was 47.13 ± 9.82 mkmol/l. The “Alkalinous phosphatase in blood serum” value ([3]; 500 mg/kg) was 42.18 ± 2.34 unit/l, the “Total protein in blood serum” value ([3]; 500 mg/kg) was 70.88 ± 7.24 g/L and the “Bilirubin (urine)” value ([4]; dose 50 mg/kg) was <5 Mkmol/l. The “Glucose (urine)” value ([4]; dose 50 mg/kg) was <5 mmol/L, the “Ketone bodies (urine)” value ([4]; dose 50 mg/kg) was <1 mmol/L and the “Potassium (urine)” value ([4]; dose 50 mg/kg) was 6.12 ± 1.4 g/L. For the same molecule, the “Protein (urine)” value ([4]; dose 50 mg/kg) was 0.70 ± 0.19 g/L, the “Sodium (urine)” value ([4]; dose 50 mg/kg) was 1.4 ± 0.2 g/L and the “Urea (urine)” value ([4]; dose 50 mg/kg) was 427 ± 137 mmol/L. The “Urobilinogen (urine)” value ([4]; dose 50 mg/kg) was <15 Mkmol/l, the “pH (urine)” value ([4]; dose 50 mg/kg) was 6.4 ± 0.4 and the “Bilirubin (urine)” value ([4]; dose 500 mg/kg) was <5 Mkmol/l. The “Glucose (urine)” value ([4]; dose 500 mg/kg) was <5 mmol/L, the “Ketone bodies (urine)” value ([4]; dose 500 mg/kg) was <1 mmol/L and the “Potassium (urine)” value ([4]; dose 500 mg/kg) was 6.44 ± 1.3 g/L. The “Protein (urine)” value ([4]; dose 500 mg/kg) was 0.72 ± 0.14 g/L, the “Sodium (urine)” value ([4]; dose 500 mg/kg) was 0.88 ± 0.4 g/L and the “Urea (urine)” value ([4]; dose 500 mg/kg) was 489 ± 152 mmol/L. For the same molecule, the “Urobilinogen (urine)” value ([4]; dose 500 mg/kg) was <15 Mkmol/l, the “pH (urine)” value ([4]; dose 500 mg/kg) was 6.2 ± 0.3 and the “coagulating activity A (autocoagulation test)” value (plasma hemostasis [5]; 15.0 mg/kg intravenously, after 15 minutes, control 85.6) was 82.1%. The “coagulating activity A (autocoagulation test)” value (plasma hemostasis [5]; 15.0 mg/kg intravenously, after 30 minutes, control 85.6) was 102.8%, the “coagulating activity A (autocoagulation test)” value (plasma hemostasis [5]; 15.0 mg/kg intravenously, after 60 minutes, control 85.6) was 88.7% and the “coagulating activity A (autocoagulation test)” value (plasma hemostasis [5]; 15.0 mg/kg intravenously, after 120 minutes, control 85.6) was 100.6%. The “coagulating activity A (autocoagulation test)” value (plasma hemostasis [5]; 30.0 mg/kg intravenously, after 15 minutes, control 70.0) was 99.8%, the “coagulating activity A (autocoagulation test)” value (plasma hemostasis [5]; 30.0 mg/kg intravenously, after 30 minutes, control 70.0) was 68.3% and the “coagulating activity A (autocoagulation test)” value (plasma hemostasis [5]; 30.0 mg/kg intravenously, after 60 minutes, control 70.0) was 105.8%. The “coagulating activity A (autocoagulation test)” value (plasma hemostasis [5]; 30.0 mg/kg intravenously, after 120 minutes, control 70.0) was 70.4%, the “coagulating activity A (autocoagulation test)” value (plasma hemostasis [5]; 60.0 mg/kg intravenously, after 15 minutes, control 65.9) was 74.3% and the “coagulating activity A (autocoagulation test)” value (plasma hemostasis [5]; 60.0 mg/kg intravenously, after 30 minutes, control 65.9) was 63.0%. The “coagulating activity A (autocoagulation test)” value (plasma hemostasis [5]; 60.0 mg/kg intravenously, after 60 minutes, control 65.9) was 64.2%, the “coagulating activity A (autocoagulation test)” value (plasma hemostasis [5]; 60.0 mg/kg intravenously, after 120 minutes, control 65.9) was 66.3% and the “effect on the coagulation activity according to the autocoagulation test” value (plasma hemostasis [5]; doses 15.0, 30.0, 60.0 mg/kg) was “have no effect on the coagulation activity”.
